Test results: article PMC3359361, “Antimalarial Activity and Mechanisms of Action of Two Novel 4-Aminoquinolines against Chloroquine-Resistant Parasites” (PLoS ONE, 2012)

Columns and labels:
[1] = system: P. falciparum W2 clone (CQ-resistant and mefloquine-sensitive); assay: ELISA anti-HRPII assay, W2 clone; format: cell-based; details: Plasmodium falciparum
Text: (§1) Human erythrocytes (A^+) and serum blood group A+ were kindly donated by Center of Hemotherapy and Hemathology of Minas Gerais (HEMOMINAS). Immediately before the tests, ring stage-parasites were synchronized in sorbitol. Synchronized parasites were stained with orange green in pre-dried coverslips then immediately examined under a fluorescent microscope. The suspension was adjusted for parasitemia and hematocrit as described below for each test. The infected red blood cells were distributed in a 96-well microtiter plate (Corning, Santa Clara, CA, EUA) at 180 µL/well, in which 20 µL of the test drugs and controls were previously diluted at different concentrations (400-0.625 ng/mL) in 0.005% DMSO (v/v) (Sigma, USA).
(§2) The [^3H]-hypoxanthine assay was performed at 1% parasitemia and 1% hematocrit and the level of isotope incorporation was read in a beta-counter (PerkinElmer, Waltham, MA, EUA). The anti-HRPII test was performed at 0.05% parasitemia and 1.5% hematocrit and the HRPII quantification was read at 450 nm in a spectrophotometer (SpectraMax340PC^384, Molecular Devices). […] Curve-fitting was performed using Origin 8.0 software (OriginLab Corporation, Northampton, MA, USA).

[2] = system: P. falciparum W2 clone (CQ-resistant and mefloquine-sensitive); assay: 3H hypoxanthine incorporation, W2 clone; format: cell-based; details: Plasmodium falciparum
Text: as §1, §2

[3] = system: P. falciparum 3D7 strain (CQ-sensitive); assay: ELISA anti-HRPII assay, 3D7 strain; format: cell-based; details: Plasmodium falciparum
Text: as §1, §2

[4] = system: P. falciparum 3D7 strain (CQ-sensitive); assay: 3H hypoxanthine incorporation, 3D7 strain; format: cell-based; details: Plasmodium falciparum
Text: as §1, §2

[5] = system: monkey kidney cell line (BGM); assay: Cytotoxicity by MTT assay, BGM cells; format: cell-based
Method: (§3) The human hepatoma cell line (HepG2) was originally received from the New University of Lisbon, and the monkey kidney cell line (BGM) from the Federal University of Minas Gerais. […] For the in vitro tests, a confluent cell monolayer was trypsinized, washed with culture medium, distributed in a flat-bottomed 96-well plate (5×10^3 cells/well) and incubated for 18 h at 37°C to ensure cell adherence.
(§4) The cytotoxicity was evaluated with the MTT assay, 3-(4,5-Dimethylthiazol-2-yl)-2,5-diphenyltetrazolium bromide. Briefly, the HepG2 and BGM cell lines were incubated with 20 µL of the compounds at different concentrations (1000-1 µg/mL) for 24 h in a 5% CO2 and air atmosphere at 37°C. For the MTT assay, which evaluates mitochondrial viability, 20 µL of MTT solution (5 mg/mL) were added and the plates were incubated for a further 3 h. After incubation, the supernatant was carefully removed from the wells, followed by the addition of 100 µL DMSO with thorough mixing.
(§5) The neutral red assay was used to evaluate cell viability by the accumulation of dye in the viable cell lysosome. […] Cell viability was expressed as the percentage of control absorbance obtained in untreated cells after subtracting the absorbance of the appropriate background. Lastly, the minimum lethal dose for 50% of the cells (MLD50) was determined as previously described.

[6] = system: human hepatoma cell line (HepG2); assay: Cytotoxicity by MTT assay, HepG2 cells; format: cell-based
Method: as §3, §4, §5

P. berghei, NK65 strain = assay: Suppressive parasite growth test in P. berghei infected mice; format: in vivo; details: for Time of survival / Percent reduction of parasitemia, day 5 / Percent reduction of parasitemia, day 8 / Percent reduction of parasitemia, day 10: three consecutive days; for Percent reduction of parasitemia, day 5: day 5 post-infection; for Percent reduction of parasitemia, day 8: day 8 post-infection; for Percent reduction of parasitemia, day 10: day 10 post-infection
Method: A suppressive parasite growth test was used with P. berghei, NK65 strain (originally received from the New York University Medical School) infected mice as described previously with some modifications. Briefly, adult Swiss outbred mice (20±2 g weigh) were inoculated with 1×10^5 red blood cells infected with P. berghei, by intraperitoneal route. The infected mice were maintained together for at least 2 h and then divided randomly into groups of 3–5 animals per cage, which were subsequently treated with 25 and 50 mg/kg of each compound diluted in DMSO 3% (v/v) given daily by oral gavage for three consecutive days. […] Blood smears from mouse tails were prepared on days 5, 8 and 10 post-infection and then methanol-fixed, stained with Giemsa and examined microscopically.

hemozoin formation = assay: Inhibition of hemozoin assay; format: biochemical; details: dose-dependent; p<0.05 vs drug-free controls; two experiments in triplicate
Method: The hemozoin inhibition assay was performed as described by Ncokazi et al., (2002) with some modifications. Briefly, 10.1 µL of the aminoquinoline derivatives at different concentrations (40-0.62 mg/mL) and 101.2 µL of the hematin stock solution (1.68 mM in 0.1 M NaOH) were combined in triplicate in a flat-bottomed 96-well plate. The solutions were further mixed and 58.7 µL of acetate solution (12.9 M, pH 5.0) then added to each well. After incubation at 60°C, 80 µL of 30% (v/v) pyridine solution in 20 mM HEPES, pH 7.5, were added at room temperature. The solids formed were resuspended and allowed to settle for 15 min at room temperature. Then, 38 µL of the supernatant were transferred to a new plate and diluted to 250 µL with a 30% (v/v) pyridine solution (20 mM HEPES, pH 7.5). The color reaction was read in a spectophometer at 405 nm and the results were expressed as the concentration of free heme in each well, which was calculated from the standard absorbance curve of a known hemin solution. CQ was used as a positive control and the cut off was determined by the amount of free heme in the drug-free control. Each compound was evaluated in two different experiments.

NCCNCCNc1ccnc2cc(Cl)ccc12 [MAQ, N^1-(2-aminoethyl)-N^2-(7-chloroquinol-4-yl)ethane-1,2-diamine]
IC50 ([1]; W2, dose that inhibits 50% of blood parasites growth, three or four experiments, read-out: IC50 HRPII, W2 (CQ resistant)): 260 ± 20 nM
IC50 ([2]; W2, dose that inhibits 50% of blood parasites growth, three or four experiments, read-out: IC50 Hypoxanthine, W2 (CQ resistant)): 320 ± 70 nM
IC50 ([3]; 3D7, dose that inhibits 50% of blood parasites growth, three or four experiments, read-out: IC50 HRPII, 3D7 (CQ sensitive)): 26 ± 2 nM
IC50 ([4]; 3D7, dose that inhibits 50% of blood parasites growth, three or four experiments, read-out: IC50 Hypoxanthine, 3D7 (CQ sensitive)): 66 ± 5 nM
Selectivity index BGM ([5]; MDL50/IC50): 384
MDL50 BGM ([5]; monkey, 24 h): 100 ± 0.0 µM
Selectivity index HepG2 ([6]; MDL50/IC50): 1038
MDL50 HepG2 ([6]; human, 24 h): 270 ± 10 µM
Activity in vivo (class) (P. berghei, NK65 strain; 25 mg/kg): active
Time of survival (P. berghei, NK65 strain; 25 mg/kg daily, oral gavage): 24 ± 1 days
Percent reduction of parasitemia, day 5 (P. berghei, NK65 strain; 25 mg/kg daily, oral gavage): 91%
Percent reduction of parasitemia, day 8 (P. berghei, NK65 strain; 25 mg/kg daily, oral gavage): 61%
Percent reduction of parasitemia, day 10 (P. berghei, NK65 strain; 25 mg/kg daily, oral gavage): 70%
Time of survival (P. berghei, NK65 strain; 50 mg/kg daily, oral gavage): 25 ± 1 days
Percent reduction of parasitemia, day 5 (P. berghei, NK65 strain; 50 mg/kg daily, oral gavage): 95%
Percent reduction of parasitemia, day 8 (P. berghei, NK65 strain; 50 mg/kg daily, oral gavage): 71%
Percent reduction of parasitemia, day 10 (P. berghei, NK65 strain; 50 mg/kg daily, oral gavage): 76%
Activity in vivo (class) (P. berghei, NK65 strain; 50 mg/kg, days 5, 8 and 10 post-infection): active
Inhibition of hemozoin formation in vitro (hemozoin formation): more evident with MAQ than with BAQ or CQ

CCN(CC)CCCC(C)Nc1ccnc2cc(Cl)ccc12 (stereo not shown) [CQ, Chloroquine]
IC50 ([1]; W2, read-out: IC50 HRPII, W2 (CQ resistant)): 120 nM
IC50 ([2]; W2, read-out: IC50 Hypoxanthine, W2 (CQ resistant)): 180 nM
IC50 ([3]; 3D7, read-out: IC50 HRPII, 3D7 (CQ sensitive)): 6.9 ± 0.9 nM
IC50 ([4]; 3D7, read-out: IC50 Hypoxanthine, 3D7 (CQ sensitive)): 7.4 ± 1.2 nM
Time of survival (P. berghei, NK65 strain; 20 mg/kg daily): >30 days
Percent reduction of parasitemia, day 5 (P. berghei, NK65 strain; 20 mg/kg daily): 100%
Percent reduction of parasitemia, day 8 (P. berghei, NK65 strain; 20 mg/kg daily): 100%
Percent reduction of parasitemia, day 10 (P. berghei, NK65 strain; 20 mg/kg daily): 100%
Suppression of parasitemia (P. berghei, NK65 strain; CQ 20 mg/kg, day not given): 100%
